From patent US4670469A, “Hydroxamic acid and pharmaceutical preparations containing the same” (VEB Arzneimittelwerk Dresden, priority 1983, dated 1987)
Where “and” joins values, the source holds several entries; their conditions need not be identical. Identical values can stand only once.

Columns and labels:
guinea pig lung strips = assay: Activity on the basal tones of guinea pig lung strips; conditions: Cavia porcellus, basal tone, cumulative dose-activity curve
Excerpt: (§1) The testing of the compounds for antiasthmatic activity follows on isolated lung strips and isolated tracheal rings from guinea pigs according to measuring methods known from the literature (supra) in modified form. The measurements follow in thermostatically controlled organ bath, isotonically using a contraction measuring arrangement with lift receiver, measuring coil, measuring amplifier (inductive measurement with the aid of a high frequency resonant circuit). The gasification follows with air. The suspension solution has the following composition: 39.46 g NaCl, 2.2 g KCl, 6.07 g Tris, 1.0 g CaCl2, 9.9 g glucose, 1.0 ml saturated MgCl2 -solution, 43 ml 1N HCl; pH 7.4.
(c) Activity on the basal tones of guinea pig lung strips.
Increasing concentrations of the active substance are added to the suspension medium. There occurs a dilatation, which is cumulatively measured. From the Dose-Activity-curves are provided the following parameters: […]

thrombocyte aggregation = assay: Arachidonic acid-induced thrombocyte aggregation in thrombocyte-rich plasma; assay type: cell-based, humans; conditions: Homo sapiens; 0.8 mM arachidonic acid; concentration giving total restraint of aggregation
Excerpt: Since with the new medicines the restraints of lipoxygenase has been identified as a molecular type of attack, also their influence on the thrombocyte-aggregation has been tested. The essential role of the lipoxygenase pathway for irreversibility of the thrombocyte aggregation is now known. (C. E. Dutilh et al. Prostaglandins and Medicine 6, 111 (1981)). The key role is attributed to the irreversibility of the thrombocyte aggregation in the pathogenesis of thrombotic illnesses. […] In the experiments, the thrombocyte aggregation was triggered either by means of arachidonic acid or by means of platelet activation factor (PAF-Acether).
The testing of the compounds for antithrombotic and thrombolytic activity follows in authentic cell systems of humans in vitro. Thrombocyte-rich plasma from the blood of healthy donors is obtained by centrifugation at 1,000×g. The measurement of the thrombocyte aggregation follows by means of an aggregometer based upon diffuse light scattering or light absorption of the produced cell aggregate. The thrombocyte-rich plasma is pre-incubated at 37° C. for 3 minutes with the active substance or substances; thereafter the thrombocyte aggregation is triggered through the addition of either 0.8 mM arachidonic acid or 1 μM platelet activation factor (PAF-acether). The preparations are then stirred with a velocity of 800 rpm. Indeed according to the employed active substance concentration there occurs either a strong delay or a complete inhibition of the thrombocyte aggregation.

[1] = test system: carrageenin edema of rat paws; assay: Inhibition of carrageenin edema of rat paws; assay type: in vivo; conditions: 200 mg/kg perorally, rats
Description: The inflammation-inhibiting activity of the compounds of Formula I is expressed, among others, by an inhibition of carrageenin edema in rat paws (see Example 9).
The carrageenin edema is employed in international literature as a model system for inflammation-triggering (prophlogistic) procedures, and offers the possibility of in vivo testing of compounds for inflammation-inhibiting (antiphlogistic) activity.
2(2'-naphthoxy)-acethydroxamic acid is supplied to 10 rats perorally in a dose of 200 mg/kg body weight with simultaneous delivery of 0.1 ml 1% carrageenin solution per animal. The extent of the paw edema is measured hourly after the application, and compared with the control group.

guinea pig trachia = assay: Carbachol-induced spasm of guinea pig trachea; conditions: Cavia porcellus; spasm triggered by 3.9 μM carbachol; read-out: active substance concentration at which strong to very strong dilatation was clearly determinable
Excerpt: as §1
(b) Activity on the carbachol-induced spasm of guinea pig trachia
The spasms are triggered by 3.9 μM carbachol.

[2] = test system: histamine-induced bronchoconstriction in guinea pigs; assay: Inhibition of histamine-induced bronchoconstriction in guinea pigs in vivo; conditions: individual animals; second histamine injection; listed as SHAM
[3] = test system: histamine-induced bronchoconstriction in guinea pigs; assay: as above
Description: Accordingly, this complete animal model is called upon for further experimental determination of the anti-asthmatic activity of compounds of Formula I. The following describes a representative experiment with salicylhydroxamic acid (SHAM) in […] male guinea pigs. SHAM is applied in a dose of 95 mg/kg body weight; this dose lies a power of ten below the determined values for acute toxicity (LD50 -value).
After urethane narcosis, a flexible catheter is introduced into the V. jugularis dext. of each animal. After a tracheotomy a tracheotubular needle is inserted for respiration. Then, after muscle relaxation with Pavulon, mechanical respiration follows in a Body-Plethysmograph (16 min^-1, I/E=1/1, pI =20 cmH2 O; Muller et al., 1976; Oddoy et al., 1982).
Over a tubular flesh needle at the outwardly led tracheotubular needle, the breath volume per draw of breath is measured by means of a pneumotachograph. The values are separately integrated and registered with a light recorder.
After 3 minutes calm breathing with registration of the parameter, three animals are dosed each with 2.5 ml SHAM-solution (isotonic, 37° C., 0.1M), i.v. (SHAM was dissolved in water directly before the test by heating, and the solution was cooled quickly in an 37° C. water bath.)
After 5 minutes further observation there follows the delivery of 5 μg/kg KM Histamine i.v. for providing a submaximal bronchospasm. After a further 5 minutes, 50 μg/kg KM Histamine are injected i.v. This leads according to experience to a fast, complete bronchial spasm ("silent chest"). After registration of the breath volume over a further 5 minutes, the test is completed.
In 3 animals serving as control group, with otherwise analogous procedure, instead of SHAM, 2.5 ml isotonic NaCl-solution are applied.
The calm- and the 5-minute values are mean values (in cm amplitude) from each 5 draws of breath.
The values after the Histamine injections represent the draw of breath having the smallest volume (3rd to 5th draw of breath after injection).

[4] = individual animals, draw of breath having the smallest volume, listed as SHAM
[5] = individual animals, listed as SHAM

Compound: O=C(COc1ccc2ccccc2c1)NO [2(2'-naphthoxy)-acethydroxamic acid]
- EC50 (guinea pig lung strips; read-out: ED50 (dilatation)): 14 µM
- EC84 (guinea pig lung strips; read-out: ED84 (dilatation)): 27 µM
- IC100 (thrombocyte aggregation): 60 µM
- Restraint (%) of carrageenin edema ([1]; 1 h): 27.3%
- Restraint (%) of carrageenin edema ([1]; 2 h): 27.3%
- Restraint (%) of carrageenin edema ([1]; 3 h): 20.2%
- Restraint (%) of carrageenin edema ([1]; 4 h): 35.3%
- Restraint (%) of carrageenin edema ([1]; 5 h): 21.4%
- minimal effective concentration (guinea pig trachia): 50 µM

Compound: O=C(NO)c1ccccc1O [salicylhydroxamic acid]
- volume change, after 5 μg/kg Histamine [2]: -49% and -95.7% and -62%
- volume change, after 5 min ([3]; average value for n = 3, 5 min after first histamine injection): +7%
- volume change, after 5 min ([3]; average value for n = 3, 5 min after second histamine injection): -20%
- volume change, after 5 min ([3]; average value for n = 3, after SHAM i.v.): +7.7%
- volume change, after 5 μg/kg Histamine ([3]; average value for n = 3, first histamine injection): -18%
- volume change, after 5 μg/kg Histamine ([3]; average value for n = 3, second histamine injection): -68.9%
- breath volume after i.v. injection ([3]; before histamine): insignificant rise
- V-5 min after SHAM (breath volume change) ([3]; individual animals, 2.5 ml 0.1M SHAM i.v., cm amplitude): +0.1 cm and +0.2 cm and +0.45 cm
- volume change, after 5 min ([3]; individual animals, 5 min after first histamine injection, listed as SHAM): +5% and +10% and +7.2%
- volume change, after 5 min ([3]; individual animals, 5 min after second histamine injection, listed as SHAM): -04% and -22% and -35%
- V after 5 μg Hist. i.v. [3, 4]: -0.4 cm and -2.2 cm
- V after 50 μg Hist. i.v. [3, 4]: -2.4 cm and -4.4 cm and -1.6 cm
- volume change, after 5 μg/kg Histamine ([3]; individual animals, first histamine injection, listed as SHAM): -8% and -48% and 0%
- V-5 min thereafter (after 5 μg Hist.) [3, 5]: +0.26 cm and +0.48 cm and +0.19 cm
- V-5 min thereafter (after 50 μg Hist.) [3, 5]: -0.2 cm and -1.0 cm and -0.9 cm
- volume change, after 5 min ([3]; individual animals, percent of the starting draw volume, after SHAM i.v.): +2% and +4% and +17%
- bronchial spasm after histamine injections ([3]; pre-treated animals versus control group): smaller bronchial spasm than the animals of the control group
- spontaneous regression of histamine induced bronchial spasm ([3]; treated animals versus control group): more quickly and more extensively than in the control group
